# Assays:
# Type in all cases: biochemical
# Savinase Ultra 16.0L = molecular target: T1, Savinase Ultra 16.0L (Lederbergia lenta, UniProt P29600); experiment: protease storage stability in liquid formulation (Suc-AAPF-pNA substrate); settings: storage at 37° C.
# T1 construct: purchased Sigma-Aldrich
# T1 sequence (P29600 1-269): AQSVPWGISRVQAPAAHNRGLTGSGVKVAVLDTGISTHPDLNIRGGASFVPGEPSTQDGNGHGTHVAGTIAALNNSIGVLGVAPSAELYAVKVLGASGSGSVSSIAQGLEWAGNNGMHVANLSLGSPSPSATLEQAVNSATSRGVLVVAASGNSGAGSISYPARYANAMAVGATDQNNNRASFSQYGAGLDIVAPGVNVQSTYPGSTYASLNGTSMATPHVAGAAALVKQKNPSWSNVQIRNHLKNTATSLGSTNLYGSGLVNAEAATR
# Method: (§1) Base test formulations were manufactured by making base formulations I to V by mixing the components according to Table 1.
# Protease used: (S) Savinase Ultra 16.0L (CAS-No. 9014-01-1, EC-No. 232-752-2) was purchased from Sigma-Aldrich
# (§2) The respective component (a) or comparative compound was added, if applicable, to the respective base formulation in amounts as indicated in Table 1.
# The amount of protease as provided in Table 1 refers to active protein.
# (§3) Water was added to accomplish the balance to 100.
# Protease activity at certain points in time as indicated in Table 3 was be determined by employing Succinyl-Ala-Ala-Pro-Phe-p-nitroanilide (Suc-AAPF-pNA, short AAPF) as substrate. pNA is cleaved from the substrate molecule by proteolytic cleavage, resulting in release of yellow color of free pNA which was determined by measuring […]. Measurements were done at 20° C.
# The proteolytic activity values provided in Table 3 were calculated referring to the value determined in the reference formulation at the time 0.
# The nomenclature of formulations is as follows: the Roman number before the full stop characterizes the base formulation, the Arabian number the type of salt (A.#inventive salt (component (a)); B.# comparative compound). Zero (“0”): no salt, but diethylene glycol.
# Amy2=Amplify = experiment: amylase storage stability in liquid formulation (pNP release from Ethyliden-blocked-pNPG7); set-up: key: % of activity in reference formulation at time 0; settings: base formulation V., 2.0 wt % component (a), storage at 37° C.
# Method: (§4) The storage stability of amylase was assessed at 37° C. Base test formulations were manufactured by making base formulations I to V by mixing the components according to Table 1. Amylases used: Amy1=Stainzyme, Amy2=Amplify, Amy3=Stainzyme Plus L (12L) The respective component (a) or comparative compound was added, if applicable, to the respective base formulation in amounts as indicated in Table 1. The amount of amylase as provided in Table 1 refers to active protein. Water was added to accomplish the balance to 100. […] Amylase activity at certain points in time as indicated in Table 2 was measured quantitatively by the release of the chromophore para-nitrophenol (pNP) from the substrate ([…]-blocked-pNPG7, Roche Applied Science 10880078103). The alpha-amylase degrades the substrate into smaller molecules and α-glucosidase (Roche Applied Science 11626329103), which is present in excess compared to the amylase, process these smaller products until pNP is released; the release of pNP, measured via an increase of absorption at 405 nm, is directly proportional to the amylase activity of the sample. Amylase standard: […] 120 L (Sigma 3403). […] The amylolytic activity values provided were calculated referring to the value determined in the reference formulation at the time 0. The nomenclature of formulations is as follows: the Roman number before the full stop characterizes the base formulation, the Arabian number the type of compound (A.# compound according to invention (component (a)); B.# comparative compound).
# Amy1=Stainzyme = experiment: as above; set-up: key: % of activity in reference formulation at time 0; settings: base formulation IV., 2.0 wt % component (a), storage at 37° C.
# Method: as §4
# [1] = system: Amy3=Stainzyme Plus L (12L); experiment: as above; settings: base formulation II., 1.5 wt % component (a), storage at 37° C.
# Method: The storage stability of amylase was assessed at 37° C.
# as §1
# Amylases used: Amy1=Stainzyme, Amy2=Amplify, Amy3=Stainzyme Plus L (12L)
# as §2
# The amount of amylase as provided in Table 1 refers to active protein.
# as §3
# Amylase activity at certain points in time as indicated in Table 2 was measured quantitatively by the release of the chromophore para-nitrophenol (pNP) from the substrate (Ethyliden-blocked-pNPG7, Roche Applied Science 10880078103). The alpha-amylase degrades the substrate into smaller molecules and α-glucosidase (Roche Applied Science 11626329103), which is present in excess compared to the amylase, process these smaller products until pNP is released; the release of pNP, measured via an increase of absorption at 405 nm, is directly proportional to the amylase activity of the sample. Amylase standard: Termamyl 120 L (Sigma 3403).
# The amylolytic activity values provided were calculated referring to the value determined in the reference formulation at the time 0.
# The nomenclature of formulations is as follows: the Roman number before the full stop characterizes the base formulation, the Arabian number the type of compound (A.# compound according to invention (component (a)); B.# comparative compound).
smiles,measurement,setting,value
"O=C(CC(O)(CC(=O)OCc1ccccc1)C(=O)OCc1ccccc1)OCc1ccccc1 [A.8, Tribenzylcitrate]","protease activity, referring to reference formulation at time 0","Savinase Ultra 16.0L; base formulation II., 1.5 wt % component (a), 3 d",94
same,"protease activity, referring to reference formulation at time 0","Savinase Ultra 16.0L; base formulation II., 1.5 wt % component (a), 7 d",93
same,"protease activity, referring to reference formulation at time 0","Savinase Ultra 16.0L; base formulation II., 1.5 wt % component (a), 14 d",90
same,"protease activity, referring to reference formulation at time 0","Savinase Ultra 16.0L; base formulation II., 1.5 wt % component (a), 21 d",87
same,"protease activity, referring to reference formulation at time 0","Savinase Ultra 16.0L; base formulation II., 1.5 wt % component (a), 28 d",83
same,"protease activity, referring to reference formulation at time 0","Savinase Ultra 16.0L; base formulation II., 1.5 wt % component (a), 42 d",75
same,"protease activity, referring to reference formulation at time 0","Savinase Ultra 16.0L; base formulation II., 1.5 wt % component (a), T0",100
same,"protease activity, referring to reference formulation at time 0","Savinase Ultra 16.0L; base formulation IV., 2.0 wt % component (a), 3 d",96
same,"protease activity, referring to reference formulation at time 0","Savinase Ultra 16.0L; base formulation IV., 2.0 wt % component (a), 7 d",93
same,"protease activity, referring to reference formulation at time 0","Savinase Ultra 16.0L; base formulation IV., 2.0 wt % component (a), 14 d",88
same,"protease activity, referring to reference formulation at time 0","Savinase Ultra 16.0L; base formulation IV., 2.0 wt % component (a), 21 d",83
same,"protease activity, referring to reference formulation at time 0","Savinase Ultra 16.0L; base formulation IV., 2.0 wt % component (a), 28 d",75
same,"protease activity, referring to reference formulation at time 0","Savinase Ultra 16.0L; base formulation IV., 2.0 wt % component (a), 42 d",68
same,"protease activity, referring to reference formulation at time 0","Savinase Ultra 16.0L; base formulation IV., 2.0 wt % component (a), T0",98
same,"protease activity, referring to reference formulation at time 0","Savinase Ultra 16.0L; base formulation V., 2.0 wt % component (a), 3 d",96
same,"protease activity, referring to reference formulation at time 0","Savinase Ultra 16.0L; base formulation V., 2.0 wt % component (a), 7 d",92
same,"protease activity, referring to reference formulation at time 0","Savinase Ultra 16.0L; base formulation V., 2.0 wt % component (a), 14 d",86
same,"protease activity, referring to reference formulation at time 0","Savinase Ultra 16.0L; base formulation V., 2.0 wt % component (a), 21 d",82
same,"protease activity, referring to reference formulation at time 0","Savinase Ultra 16.0L; base formulation V., 2.0 wt % component (a), 28 d",77
same,"protease activity, referring to reference formulation at time 0","Savinase Ultra 16.0L; base formulation V., 2.0 wt % component (a), 42 d",69
same,"protease activity, referring to reference formulation at time 0","Savinase Ultra 16.0L; base formulation V., 2.0 wt % component (a), T0",100
same,"amylase activity, referring to reference formulation at time 0",Amy2=Amplify; 3 d,93
same,"amylase activity, referring to reference formulation at time 0",Amy2=Amplify; 7 d,86
same,"amylase activity, referring to reference formulation at time 0",Amy2=Amplify; 14 d,80
same,"amylase activity, referring to reference formulation at time 0",Amy2=Amplify; 21 d,77
same,"amylase activity, referring to reference formulation at time 0",Amy2=Amplify; 28 d,66
same,"amylase activity, referring to reference formulation at time 0",Amy2=Amplify; 42 d,59
same,"amylase activity, referring to reference formulation at time 0",Amy2=Amplify; T0,98
same,"amylase activity, referring to reference formulation at time 0",Amy1=Stainzyme; 3 d,96
same,"amylase activity, referring to reference formulation at time 0",Amy1=Stainzyme; 7 d,92
same,"amylase activity, referring to reference formulation at time 0",Amy1=Stainzyme; 14 d,86
same,"amylase activity, referring to reference formulation at time 0",Amy1=Stainzyme; 21 d,81
same,"amylase activity, referring to reference formulation at time 0",Amy1=Stainzyme; 28 d,70
same,"amylase activity, referring to reference formulation at time 0",Amy1=Stainzyme; 42 d,59
same,"amylase activity, referring to reference formulation at time 0",Amy1=Stainzyme; T0,98
same,"amylase activity, referring to reference formulation at time 0",[1]; 3 d,100
same,"amylase activity, referring to reference formulation at time 0",[1]; 7 d,95
same,"amylase activity, referring to reference formulation at time 0",[1]; 14 d,90
same,"amylase activity, referring to reference formulation at time 0",[1]; 21 d,83
same,"amylase activity, referring to reference formulation at time 0",[1]; 28 d,81
same,"amylase activity, referring to reference formulation at time 0",[1]; 42 d,71
same,"amylase activity, referring to reference formulation at time 0",[1]; T0,99
